The results in this text go back to patent US20220202739A1, “ENDOCANNABINOID MIMETIC AND ANTI-INFLAMMATORY COMPOUND CONTAINING COMPOSITIONS, METHODS OF PREPARATION AND USES THEREOF” (priority 2019, published 2022).

Each structure is given as a SMILES string. Where two headings read alike, the source gives them in different places.

What all share (format): cell-based
One assay relates to CNR2. The assay can be described thus: Gene expression custom microarray, human skin fibroblasts (Example 1): CNR2. Particulars: for fold induction at 10 µM: Skin fibroblast, read-out: CNR2↑ gene expression, fold increase or decrease vs untreated cells. From the text:
(§1) Cell cultures: A human skin fibroblast cell culture (or cultures) was obtained through the Coriell Cell Repository from the National Institute on Aging Cell Repository (Camden, N.J.), or Promocell GmbH (Heidelberg, Germany). The initial culture was selected from the following cell lines: AG13066, AG11557, AG11796 or GM03651E. The cell lines were derived from donors as follows:
(§2) Experimental phase: When the appropriate quantity of cells had been grown, they were detached as described above, but at the final step were seeded into each well of one or more 6 well dishes. Each well received 2 ml of the cell suspension so they were seeded equally. The dishes were returned to the incubator until 85-95% confluency was reached.
(§3) It is at this stage that all wells were rinsed in PBS after aspirating the growth media. The compound(s) to be tested were previously mixed into a suitable solvent (e.g., DMSO or ethanol) that can be diluted to the desired concentration of test compound (10 μl) in the culture wells without exceeding maximum solvent concentrations and adversely effecting cell viability, and mixed with basal media. NOTE: Standard maximum levels of solvent are 0.1% for DMSO and 0.5% for ETOH. The concentration of each test compound is found in Tables 1 & 2.
(§4) Every 2 wells on the 6 well plate served as a biological replicate for the purposes of RNA isolation and genetic expression evaluations making each 6 well dish an n=3 for the test compound(s) contained in the media. Negative control plates (no test compound(s) and only basal media) were also generated. The plates were returned to the incubator for 24 hrs.
(§5) At the end of the 24 hr time period, the plates were removed from the incubator, the test media aspirated, and the cells rinsed with PBS. RNA isolation is performed using the BioRad Aurum Total RNA Mini Kit (Hercules, Calif.) per manufacturer's protocol; which is described, in brief, below: • Add 350 μl of lysis buffer to each well. Pipet multiple times to ensure thorough lysis. Add lysed cells to the collection tube. • Add 350 μl of 70% ETOH to the collection tube and mix thoroughly. • Pipet the generated lysate onto the spin column placed in a new 2 ml tube. Centrifuge for 30 sec between 8,000 and 10,000 g. • Place the spin column containing the now bound RNA, in a new 2 ml tube. Add 700 μl of low stringency wash solution to the spin column. Centrifuge for 30 sec between 8,000 and 10,000 g. Discard the flow through and replace spin column. • Add 80 μl of DNase I dilution to the spin column and incubate at room temperature for 15 minutes. • Add 700 μl of high stringency wash solution to the column and centrifuge for 30 sec between 8,000 and 10,000 g. Discard flow through. • Add 700 μl of low stringency wash solution to the column and centrifuge for 60 sec between 8,000 and 10,000 g. Discard flow through. • Centrifuge for 2 minutes to remove residual wash solution. • Transfer spin column to new 1.5 ml collection tube and add 80 μl of elution solution to the column. Allow 1 minute for saturation of the membrane and then centrifuge for 2 minutes to complete the RNA elution. • Quantify the quantity of RNA and store at −20 C° until use (no more than 1 month)
(§6) The genes tested were: • Cannabinoid receptor 1 (CB1(CNR1)) • Cannabinoid receptor 2 (CB2 (CNR2)) • Fatty acid amide hydrolase (FAAH) • Monoacylglycerol lipase (MGLL, i.e., MAGL) • Peroxisome proliferator-activated receptor gamma (PPARG) • Nuclear factor kappa-light-chain-enhancer of activated B cells (NFκβ) • Interleukin 1 Alpha (IL1alpha) • Cyclooxygenase 1 (PTGS1, i.e., COX1) • Transient receptor potential cation channel subfamily A member 1 (TRPA1) • Transient receptor potential cation channel subfamily V member 1 (TRPV1) • Transient receptor potential cation channel subfamily M member 8 (TRPM8) • Hemoglobin Subunit Beta (HBB) REFERENCE GENE • Ribosomal Protein L13a (RPL13A) REFERENCE GENE […]

In another assay the test system is TRPM8. Kind of assay: Gene expression custom microarray, human skin fibroblasts (Example 1): TRPM8. As to conditions: 24 hr; for fold induction at 10 µM: Skin fibroblast, read-out: TRPM8↑ gene expression, fold increase or decrease vs untreated cells.
Description: as §1, §2, §3, §4, §5, §6

Another assay has as its system TRPA1. The assay can be described thus: Gene expression custom microarray, human skin fibroblasts (Example 1): TRPA1. As to conditions: for fold induction at 10 µM: Skin fibroblast, read-out: TRPA1↑ gene expression, fold increase or decrease vs untreated cells.
Description: as §1, §2, §3, §4, §5, §6

Setting [1] is: human skin fibroblasts, 10 uM, 24 hr.

Take `C=C(C)[C@@H]1CCC(C)=C[C@H]1c1c(O)cc(CCCCC)cc1O` [CBD, cannabidiol, reference compound]: the fold induction at 10 µM in the assay on CNR2 (Homo sapiens, 24 h) was determined as 1.7; with TRPM8, 6.1; in the assay with TRPA1 (Homo sapiens, 24 h) it was 2.7.

For `CC(C)[C@]12O[C@H]1[C@@H]1O[C@]13[C@]1(O[C@H]1C[C@H]1C4=C(CC[C@@]13C)C(=O)OC4)[C@@H]2O` [Triptolide], the fold induction at 10 µM in the assay on CNR2 (setting [1]) worked out at 10.1; with TRPM8, 47.6; in the assay with TRPA1 (setting [1]), 26.1.

For `CCCCCCCCCCCCCCCC(=O)NCCO` [N-palmitoylethanolamide], the “CNR2↑ gene expression, fold increase or decrease vs untreated cells” value in the assay with CNR2 (setting [1]) came out at 3.9 fold. For the same compound, the “TRPM8↑ gene expression, fold increase or decrease vs untreated cells” value in the assay on TRPM8 (10 uM) is 5.1 fold. In addition, in the assay on TRPA1 (setting [1]), the “TRPA1↑ gene expression, fold increase or decrease vs untreated cells” value was determined as 8.2 fold.
